Measurements taken from ChEMBL document CHEMBL3244188, “Antagonists of slow reacting substance of anaphylaxis. Synthesis of a series of chromone-2-carboxylic acids” (J Med Chem, 1977).

system: Ileum; assay: Antagonism of slow reacting substance of anaphylaxis-induced contraction in guinea pig ileum treated 30 secs before SRS-A challenge; assay type: functional, tissue-based; conditions: Cavia porcellus

| Compound | IC50 |
| --- | --- |
| C=CCc1ccccc1OCC(O)COc1ccc2c(=O)cc(C(=O)[O-])oc2c1.[Na+] (stereo not drawn) | 1.8 µg/mL |
| O=C([O-])c1cc(=O)c2c(OCCCCCCCOc3ccccc3)cccc2o1.[Na+] | 0.8 µg/mL |
| O=C([O-])c1cc(=O)c2c(OCCCCCCCCCOc3ccccc3)cccc2o1.[Na+] | 6 µg/mL |
| O=C([O-])c1cc(=O)c2c(OCCOc3ccccc3)cccc2o1.[Na+] | 100 µg/mL |
| O=C([O-])c1cc(=O)c2c(OCCCOc3ccccc3)cccc2o1.[Na+] | 35 µg/mL |
| O=C([O-])c1cc(=O)c2c(OCCCCCOc3ccccc3)cccc2o1.[Na+] | 17.5 µg/mL |
| O=C([O-])c1cc(=O)c2cc(OCCCOc3ccccc3)ccc2o1.[Na+] | 3.3 µg/mL |
| O=C([O-])c1cc(=O)c2cc(Cc3ccccc3)ccc2o1.[Na+] | 6.6 µg/mL |
| O=C([O-])c1cc(=O)c2cc(CCCc3ccccc3)ccc2o1.[Na+] | 3 µg/mL |
| O=C([O-])c1cc(=O)c2cc(CCCCCc3ccccc3)ccc2o1.[Na+] | 4.5 µg/mL |
| O=C([O-])c1cc(=O)c2ccc(SCCCCCOc3ccccc3)cc2o1.[Na+] | 0.3 µg/mL |
| O=C([O-])c1cc(=O)c2cccc(OCCCOc3ccccc3)c2o1.[Na+] | 50 µg/mL |
| O=C([O-])c1cc(=O)c2cccc(OCCCCCOc3ccccc3)c2o1.[Na+] | 9 µg/mL |
| O=C([O-])c1cc(=O)c2ccc(OCCCCCOc3cccc(OCc4ccccc4)c3)cc2o1.[Na+] | 1 µg/mL |
| C=CCc1c(OCCCCCOc2cccc(O)c2C(C)=O)ccc2c(=O)cc(C(=O)[O-])oc12.[Na+] | 0.05 µg/mL |
| C=CCc1c(OCCCCCOc2ccc3c(=O)cc(C(=O)[O-])oc3c2CC=C)ccc(C(C)=O)c1O.[Na+] | 1.23 µg/mL |
| CCCc1ccccc1OCCCOc1ccc2c(=O)cc(C(=O)[O-])oc2c1CCC.[Na+] | 0.18 µg/mL |

| Compound | IC50 |
| --- | --- |
| CCCc1ccccc1OCCCOc1cc2oc(C(=O)[O-])cc(=O)c2cc1CCC.[Na+] | 18 µg/mL |
| CCCc1c(OCCCOc2ccc3c(=O)cc(C(=O)[O-])oc3c2CCC)ccc(C(C)=O)c1O.[Na+] | 0.001 µg/mL |
| O=C([O-])c1cc(=O)c2ccc(OCC(O)COc3ccccc3)cc2o1.[Na+] (stereo not drawn) | 7 µg/mL |
| CC(=O)c1ccc(OCC(O)COc2ccc3c(=O)cc(C(=O)[O-])oc3c2)cc1O.[Na+] (stereo not drawn) | 28 µg/mL |
| C=CCc1c(OCC(O)COc2ccc3c(=O)cc(C(=O)[O-])oc3c2)ccc(C(C)=O)c1O.[Na+] (stereo not drawn) | 0.1 µg/mL |
| C=CCc1c(OCC(O)COc2ccc(C(C)=O)c(O)c2)ccc2c(=O)cc(C(=O)[O-])oc12.[Na+] (stereo not drawn) | 3.3 µg/mL |
| C=CCc1c(OCC(O)COc2ccc3c(=O)cc(C(=O)[O-])oc3c2CC=C)ccc(C(C)=O)c1O.[Na+] (stereo not drawn) | 0.05 µg/mL |
| CCCc1c(OCC(O)COc2ccc3c(=O)cc(C(=O)[O-])oc3c2)ccc(C(C)=O)c1O.[Na+] (stereo not drawn) | 0.08 µg/mL |
| CCCc1ccccc1OCC(O)COc1ccc2c(=O)cc(C(=O)[O-])oc2c1.[Na+] (stereo not drawn) | 2 µg/mL |
| CCCc1ccccc1OCC(O)COc1ccc2c(=O)cc(C(=O)[O-])oc2c1CCC.[Na+] (stereo not drawn) | 0.044 µg/mL |
| CCCc1ccccc1OCC(O)COc1cc2oc(C(=O)[O-])cc(=O)c2cc1CCC.[Na+] (stereo not drawn) | 1.6 µg/mL |
| CCCc1c(OCC(O)COc2ccc3c(=O)cc(C(=O)[O-])oc3c2CCC)ccc(C(C)=O)c1OC.[Na+] (stereo not drawn) | 45 µg/mL |
| CCCc1cc(C(C)=O)ccc1OCC(O)COc1ccc2c(=O)cc(C(=O)[O-])oc2c1CCC.[Na+] (stereo not drawn) | 0.15 µg/mL |
| CCCc1c(OCc2ccccc2)cccc1OCC(O)COc1ccc2c(=O)cc(C(=O)[O-])oc2c1CCC.[Na+] (stereo not drawn) | 1 µg/mL |
| CCCc1c(OCC(O)COc2cccc(O)c2C(C)=O)ccc2c(=O)cc(C(=O)[O-])oc12.[Na+] (stereo not drawn) | 0.3 µg/mL |
| CCCc1c(OCC(O)COc2ccc3c(=O)cc(C(=O)[O-])oc3c2CCC)ccc(C(C)=O)c1O.[Na+] (stereo not drawn) [FPL-55712 SODIUM SALT] | 0.005 µg/mL |

More lines, now with the values ahead:

| IC50 | Compound |
| --- | --- |
| 3.3 µg/mL | O=C([O-])c1cc(=O)c2cc(OCCCCCOc3ccccc3)ccc2o1.[Na+] |
| 15 µg/mL | O=C([O-])c1cc(=O)c2ccc(OCCOc3ccccc3)cc2o1.[Na+] |
| 1.4 µg/mL | O=C([O-])c1cc(=O)c2ccc(OCCCOc3ccccc3)cc2o1.[Na+] |
| 0.4 µg/mL | O=C([O-])c1cc(=O)c2ccc(OCCCCCOc3ccccc3)cc2o1.[Na+] |
| 1.8 µg/mL | O=C([O-])c1cc(=O)c2ccc(OCCCCCCCOc3ccccc3)cc2o1.[Na+] |
| 1.8 µg/mL | O=C([O-])c1cc(=O)c2ccc(OCCCCCCCCCOc3ccccc3)cc2o1.[Na+] |
| 0.4 µg/mL | O=C([O-])c1cc(=O)c2ccc(OCCCCCSc3ccccc3)cc2o1.[Na+] |
| 0.6 µg/mL | O=C([O-])c1cc(=O)c2ccc(OCCCCCc3ccccc3)cc2o1.[Na+] |
| 0.9 µg/mL | C=CCc1ccc(OCCCCCOc2ccc3c(=O)cc(C(=O)[O-])oc3c2)c(C(C)=O)c1O.[Na+] |
| 1.5 µg/mL | O=C([O-])c1cc(=O)c2ccc(OCCCCCOc3cccc(O)c3)cc2o1.[Na+] |
| 1.5 µg/mL | COc1cccc(OCCCCCOc2ccc3c(=O)cc(C(=O)[O-])oc3c2)c1.[Na+] |
| 3.5 µg/mL | CC(=O)c1ccc(OCCCCCOc2ccc3c(=O)cc(C(=O)[O-])oc3c2)cc1.[Na+] |
| 3.9 µg/mL | C=CCc1c(OCCCCCOc2ccc(C(=O)CN)cc2)ccc2c(=O)cc(C(=O)[O-])oc12.[Na+] |
| 2.4 µg/mL | C=CCc1c(OCCCCCOc2ccc(C(C)=O)cc2)ccc2c(=O)cc(C(=O)[O-])oc12.[Na+] |
| 6.8 µg/mL | CC(=O)c1ccc(OCCCCCOc2ccc3c(=O)cc(C(=O)[O-])oc3c2)cc1O.[Na+] |
